The values that follow come from US4795751A, “5-substituted-6,8-difluoroquinolines useful as antibacterial agents” (Dainippon Pharmaceutical Co., Ltd., priority 1985, dated 1989).

Series [1] relates to Staphylococcus aureus 50774. Briefly: In vivo efficacy against systemic infections in mice. On the set-up: species or system Staphylococcus aureus; male mice (ddY-S). The following applies: Staphylococcus aureus, 50774, 336 h, oral, intravenous infection 5×10^8 cells, twice, immediately and 6 h after infection, 14 days, calculated for free base, read-out: median effective dose (ED50). Here is the method: (§1) Compounds were each dissolved in deionized water. Each of the solutions was orally administered to mice infected with each of the test organisms under the conditions shown hereinbelow, and the median effective dose (ED50) was calculated by probit analysis. The numerals in the table show ED50 (mg/kg) value, calculated for free base.
(§2) Mice: Male mice (ddY-S) weighing about 20 g
Staphylococcus aureus 50774
Intravenous infection with 5×10^8 cells per mouse suspended in saline.
(§3) Four times, immediately, 6, 24 and 30 hours after infection in case of Streptococcus pneumoniae 1 Neufeld. Twice, immediately and 6 hours after infection in case of other organisms.
(§4) For 14 days in case of Staphylococcus aureus 50774 and Streptocuccus pneumoniae 1 Neufeld. For 7 days in case of other organisms.

The subject of series [2] is Pseudomonas aeruginosa 12. The description is as above. Set-up: species or system Pseudomonas aeruginosa; male mice (ddY-S). The following applies: Pseudomonas aeruginosa, 12, 168 h, oral, intraperitoneal infection about 5×10^3 cells, 4% mucin, twice, immediately and 6 h after infection, 7 days, calculated for free base, read-out: median effective dose (ED50). Here is the method:
as §1, §2
Pseudomonas aeruginosa 12
Intraperitoneal infection with about 5×10^3 cells per mouse suspended in tryptosoy broth with 4% mucin.
as §3, §4

The subject of series [3] is S. aureus No. 50774. The series is described as follows: In vitro antibacterial activity, twofold agar-dilution method. It is filed as cell-based. The following applies: Staphylococcus aureus; S. aureus No. 50774 (Gram +); Mueller-Hinton agar, 20 h, 37° C.; calculated for free base; read-out: minimum inhibitory concentration (MIC). On the procedure:
(§5) The numbers in the table show minimum inhibitory concentrations (MIC) (μg/ml), calculated for free base. The minimum inhibitory concentration was determined by the twofold agar-dilution method, which was recommended by Japan Society of Chemotherapy (Chemotherapy, 29(1), 76(1981)), using Muller-Hinton agar. One loopful of an overnight culture of test organisms in Mueller-Hinton broth was inoculated onto 10-ml drug-containing agar layers in petri dishes. Bacterial inocula contained approximately 10^6 colonyl-formingunits. Bacterial growth was observed after 20-hour incubation at 37° C. The MIC was defined as the lowest drug concentration which prevented visible bacterial growth.

The test system of series [4] is S. aureus No. 80. The description is as above. The series is classed as cell-based. The following applies: Staphylococcus aureus; S. aureus No. 80 (Gram +); Mueller-Hinton agar, 20 h, 37° C.; calculated for free base; read-out: minimum inhibitory concentration (MIC). Here is the method:
as §5

Series [5] has as its system E. coli P-51213. The series is described as above. The series is classed as cell-based. The following applies: Escherichia coli, P51213; E. coli P-51213 (Gram -); Mueller-Hinton agar, 20 h, 37° C.; calculated for free base; read-out: minimum inhibitory concentration (MIC). On the procedure:
as §5

Series [6] has as its system Al. faecalis P-7001. The description is as above. The series is classed as cell-based. The following applies: Alcaligenes faecalis, P7001; Al. faecalis P-7001 (Gram -); Mueller-Hinton agar, 20 h, 37° C.; calculated for free base; read-out: minimum inhibitory concentration (MIC). Here is the method: as §5
In series [7] the test system is Ac. calcoaceticus P-6901. Described as above. The series is classed as cell-based. The following applies: Acinetobacter calcoaceticus, P6901; Ac. calcoaceticus P-6901 (Gram -); Mueller-Hinton agar, 20 h, 37° C.; calculated for free base; read-out: minimum inhibitory concentration (MIC). Here is the method: as §5
The subject of series [8] is B. subtilis PCI 219. The description is as above. The series is classed as cell-based. The following applies: Bacillus subtilis, PCI219; B. subtilis PCI 219 (Gram +); Mueller-Hinton agar, 20 h, 37° C.; calculated for free base; read-out: minimum inhibitory concentration (MIC). On the procedure: as §5
In series [9] the test system is S. epidermidis No. 8. The series is described as above. The series is classed as cell-based. The following applies: Staphylococcus epidermidis; S. epidermidis No. 8 (Gram +); Mueller-Hinton agar, 20 h, 37° C.; calculated for free base; read-out: minimum inhibitory concentration (MIC). Here is the method:
as §5

Series [10] relates to P. aeruginosa No. 12. The description is as above. The following applies: Pseudomonas aeruginosa; P. aeruginosa No. 12 (Gram -); Mueller-Hinton agar, 20 h, 37° C.; calculated for free base; read-out: minimum inhibitory concentration (MIC). The series is classed as cell-based. Here is the method:
as §5

The test system of series [11] is S. aureus 209P JC-1. Described as above. It is filed as cell-based. The following applies: Staphylococcus aureus; S. aureus 209P JC-1 (Gram +); Mueller-Hinton agar, 20 h, 37° C.; calculated for free base; read-out: minimum inhibitory concentration (MIC). Here is the method: as §5
The subject of series [12] is M. bovis P-7101. Briefly: microbe, parasite or virus in culture. The series is classed as cell-based. The following applies: Mycobacterium tuberculosis variant bovis, P7101, 20 h, read-out: minimum inhibitory concentration (MIC).
Series [13] relates to Streptococcus pyogenes A65. Briefly: In vivo efficacy against systemic infections in mice. Set-up: species or system Streptococcus pyogenes; male mice (ddY-S). The following applies: A65, 168 h, oral, intraperitoneal infection 3×10^7 cells, twice, immediately and 6 h after infection, 7 days, calculated for free base, read-out: median effective dose (ED50). On the procedure:
as §1, §2
Streptococcus pyogenes A65
Intraperitoneal infection with 3×10^7 cells per mouse suspended in brain heart infusion broth.
as §3, §4

The test system of series [14] is Campylobacter jejuni 10812. The series is described as follows: Antibacterial activity against Campylobacter jejuni, twofold agar-dilution method. It is filed as cell-based. The following applies: strain 10812, blood-containing Mueller-Hinton agar, 48 h, 37° C. microaerobically, calculated for free base, read-out: minimum inhibitory concentration (MIC). On the procedure:
(§6) The numbers in the table show minimum inhibitory concentrations (MIC) (μg/ml), calculated for free base. The minimum inhibitory concentration was determined by the twofold agar-dilution method using blood-containing Mueller-Hinton agar. One loopful of a culture of test organisms in Mueller-Hinton broth was inoculated onto 10-ml drug-containing agar layer in petri dishes. Bacterial growth was observed after 48-hour incubation at 37° C. microaerobically. The MIC was defined as the lowest drug concentration which prevented visible bacterial growth.

Series [15] concerns Campylobacter jejuni 10. The description is as above. The series is classed as cell-based. The following applies: strain 10, blood-containing Mueller-Hinton agar, 48 h, 37° C. microaerobically, calculated for free base, read-out: minimum inhibitory concentration (MIC). Here is the method: as §6
Series [16] in a line: Acute oral toxicity in mice. The following applies: mouse, in vivo, po. Here is the method:
(§7) A solution containing each of compounds 1, 2 and 3 of this invention in various concentrations was orally given to male mice (ddY) at a dose of 0.1 ml per 10 g of body weight. The number of dead mice was counted after 7 days, and the value of median lethal dose (LD50, mg/kg) was calculated in accordance with the Behrens-Kaerber method.

Series [17] deals with male mice (ddY). The series is described as follows: Acute oral toxicity in mice. The following applies: conclusion in words from Table 5. Here is the method:
as §7

Values after ≈ are worked out from the molar mass of the structure shown.

As for `CC1CN(c2c(F)c(N)c3c(=O)c(C(=O)O)cn(C4CC4)c3c2F)CCN1` (centres unmarked) [Compound 1, 5-Amino-1-cyclopropyl-6,8-difluoro-7-(3-methyl-1-piperazinyl)-1,4-dihydro-4-oxoquinoline-3-carboxylic acid], the ED50 in [1] is 1.35 mg/kg; in series [2], 1.11 mg/kg; in [13], 5.26 mg/kg. Besides, the MIC in series [3] was 0.0125 mg/L (≈ 0.033 µM); in series [4], 0.0125 mg/L (≈ 0.033 µM); in [5], 0.025 mg/L (≈ 0.0661 µM); in series [6] it was 0.1 mg/L (≈ 0.264 µM); in [7] it was 0.0125 mg/L (≈ 0.033 µM); in [8] it was 0.05 mg/L (≈ 0.132 µM). Further, the MIC was 0.025 mg/L (≈ 0.0661 µM) in [9]; 0.1 mg/L (≈ 0.264 µM) in series [10]; 0.025 mg/L (≈ 0.0661 µM) in [11]; 0.2 mg/L (≈ 0.529 µM) in series [12]; 0.025 mg/L (≈ 0.0661 µM) in series [14]; 0.0125 mg/L (≈ 0.033 µM) in [15]. For the same molecule, the 50% lethal dose (LD50) at 168 h in series [16] was over 2000 mg/kg. Also, in series [17], the oral toxicity result is reported as “low oral toxicity”.

Usually ED50 stands for the dose at which the effect has come halfway, by size or by number of responders. What is called LD50 is the dose at which mortality reaches 50%. A lower LD50 goes with a more toxic substance.
